Test system: class I antigen presentation gene expression in MCC cell lines
Experiment: RNA-seq / DESeq2 differential expression of MCC cell lines at baseline and after IFN-γ stimulation
Format: cell-based, human
Experimental: FIG. 2A comprises RNA-seq heatmaps of class I antigen presentation gene expression in MCC lines and controls.
FIG. 2B is a volcano plot of differentially expressed genes (genes below FDR cutoff 0.01 are shown in yellow) between baseline and IFN-γ-treated MCC cell lines. Differential expression analysis was performed using DESeq2, and negative LFC indicates increased expression in +IFN-γ samples. IFN genes are highlighted in red.
RNA samples were first assessed for quality using the Agilent Bioanalyzer (DV200 metric). One hundred ng of RNA were used as the input for first strand cDNA synthesis using Superscript III reverse transcriptase and Illumina's TruSeq RNA Access Sample Prep Kit. Synthesis of the second strand of cDNA was followed by indexed adapter ligation with UMI (unique molecular index) adaptors. Subsequent PCR amplification enriched for adapted fragments. Amplified libraries were quantified, normalized, pooled, and hybridized with exome targeting oligos. Following hybridization, bead clean-up, elution and PCR was performed to prepare library pools for sequencing on Illumina flowcell lanes. Transcriptomes were sequenced to a coverage of at least 50 million reads in pairs.
Raw fastq files for fibroblast and keratinocyte control lines were downloaded from SRA using R Bioconductor package SRAdb (Mayakonda et al. (2018) supra; Zhu et al. (2013) BMC Bioinformatics 14 (1): 1-4) using accession codes SRP126422 (4 replicates from control samples ‘NN’) and SRP131347 (6 replicates with condition: control and genotype: control). These fastq files, along with those for the mkl1 and waga cell lines, were aligned using STAR version 2.7.3a (Dobin et al. (2013) Bioinformatics 29 (1): 15-21), using index genome reference file downloaded from ftp.ebi.ac.uk/pub/databases/gencode/Gencode_human/release_19/GRCh37.p13.genome.fa.gz, transcript annotation file downloaded from data.broadinstitute.org/snowman/hg19/star/gencode.v19.annotation.gtf, and with the following options: --twopassMode Basic, --outSAMstrandField intronMotif, --alignIntronMax 1000000, --alignMatesGapMax 1000000, --sjdbScore 2, --outSAMtype BAM Unsorted, --outSAMattributes NH HI NM MD AS XS, --outFilterType BySJout, --outSAMunmapped Within, --genomeLoad NoSharedMemory, --outFilterScoreMinOverLread 0, --outFilterMatchNminOverLread 0, --outFilterMismatchNmax 999, and outFilterMultimapNmax 20. Duplicates were marked with picard MarkDuplicates version 2.22.0-SNAPSHOT.
RNA-sequencing bam files for MCC tumor and cell line samples were downloaded from the Broad Genomics Firecloud/Terra platform using the Google Cloud Storage command line tool gsutil version 4.5 (github.com/GoogleCloudPlatform/gsutil/).
Gene counts were obtained from bam files using featureCounts version 2.0.0 (doi.org/10.1093/bioinformatics/btt656). Very lowly expressed genes with average count across samples less than 1 were excluded from analysis. Between-sample distance metrics were computed using the Euclidean distance on the vectors of variance-stabilized counts obtained from the vst function in the DESeq2 R Bioconductor package ([…]; Love et al. (2014) Genome Biology 15 (12): 550).
Differential expression analysis was carried out between (1) viral positive and viral negative samples (adjusting for cell line or tumor as a covariate), (2) cell line and tumor samples (adjusting for viral status as a covariate), and (3) IFNγ plus and minus samples (adjusting for viral status as a covariate) using the negative binomial GLM Wald test of DESeq2, where significance was assessed using the p-values adjusted for multiple comparisons under default settings. To account for potential global gene expression differences among sample groups, RUVg (Risso et al. (2014) […] 32 (9): 896-902) was used to estimate latent factors of unwanted variation from the list of housekeeping genes downloaded from www.tau.ac.il/˜elieis/HKG/HK_genes.txt. […]

[1] = 11 MCC cell lines, baseline vs IFNγ, negative LFC = upregulation in IFNγ-treated

Substance: IFN-y: type II interferon, recombinant human, used to treat MCC cells
- class I genes mRNA expression (RNA-seq) (10 of 11 MCC lines, baseline vs treated): markedly upregulated
- log2FoldChange ACSL5 (ENSG00000197142.6) [1]: −5.831
- log2FoldChange ADAR (ENSG00000160710.11) [1]: −1.068
- log2FoldChange ADGRF3 (ENSG00000173567.10) [1]: −0.853
- log2FoldChange ATP2C1 (ENSG00000017260.15) [1]: −0.5502
- log2FoldChange ATP10D (ENSG00000145246.9) [1]: −2.417
- log2FoldChange AZIN2 (ENSG00000142920.12) [1]: −1.224
- log2FoldChange BATF2 (ENSG00000168062.5) [1]: −7.362
- log2FoldChange BCL2L14 (ENSG00000121380.8) [1]: −5.59
- log2FoldChange BCL6 (ENSG00000113916.13) [1]: −2.953
- log2FoldChange BTN2A1 (ENSG00000112763.11) [1]: −0.9873
- log2FoldChange BTN2A3P (ENSG00000124549.10) [1]: −4.459
- log2FoldChange BTN3A1 (ENSG00000026950.12) [1]: −6.582
- log2FoldChange BTN3A2 (ENSG00000186470.9) [1]: −6.089
- log2FoldChange BTN3A3 (ENSG00000111801.11) [1]: −6.93
- log2FoldChange C1QB (ENSG00000173369.11) [1]: −3.233
- log2FoldChange C2 (ENSG00000166278.10) [1]: −4.096
- log2FoldChange C4A (ENSG00000244731.3) [1]: −1.245
- log2FoldChange C4B (ENSG00000224389.4) [1]: −2.248
- log2FoldChange C5orf56 (ENSG00000197536.6) [1]: −3.71
- log2FoldChange CARD16 (ENSG00000204397.3) [1]: −6.289
- log2FoldChange CASC6 (ENSG00000224944.1) [1]: −3.263
- log2FoldChange CASP1 (ENSG00000137752.18) [1]: −7.907
- log2FoldChange CASP4 (ENSG00000196954.8) [1]: −4.024
- log2FoldChange CASP7 (ENSG00000165806.15) [1]: −1.833
- log2FoldChange CCDC73 (ENSG00000186714.8) [1]: −2.84
- log2FoldChange CCND1 (ENSG00000110092.3) [1]: −5.698
- log2FoldChange CD74 (ENSG00000019582.10) [1]: −8.494
- log2FoldChange CD274 (ENSG00000120217.9) [1]: −6.119
- log2FoldChange CDC20 (ENSG00000117399.9) [1]: 0.6763
- log2FoldChange CFB (ENSG00000243649.4) [1]: −7.333
- log2FoldChange CIR1 (ENSG00000138433.11) [1]: −0.5344
- log2FoldChange CLVS1 (ENSG00000177182.6) [1]: −3.934
- log2FoldChange CMPK2 (ENSG00000134326.7) [1]: −2.83
- log2FoldChange CSF1 (ENSG00000184371.9) [1]: −3.741
- log2FoldChange CTSO (ENSG00000256043.2) [1]: −3.005
- log2FoldChange CXCL9 (ENSG00000138755.5) [1]: −11.74
- log2FoldChange CXCL10 (ENSG00000169245.4) [1]: −5.89
- log2FoldChange CXCL11 (ENSG00000169248.8) [1]: −4.672
- log2FoldChange DDO (ENSG00000203797.5) [1]: −4.692
- log2FoldChange DDX58 (ENSG00000107201.5) [1]: −2.939
- log2FoldChange DDX60 (ENSG00000137628.12) [1]: −7.298
- log2FoldChange DDX60L (ENSG00000181381.9) [1]: −3.461
- log2FoldChange DNPEP (ENSG00000123992.14) [1]: −1.703
- log2FoldChange DTX3L (ENSG00000163840.5) [1]: −4.603
- log2FoldChange EIF2AK2 (ENSG00000055332.12) [1]: −1.367
- log2FoldChange ENSG00000121848.9 (symbol NA) [1]: −0.3499
- log2FoldChange ENSG00000197146.2 (symbol NA) [1]: −1.6
- log2FoldChange ENSG00000202533.1 (symbol NA) [1]: −3.684
- log2FoldChange ENSG00000213500.3 (symbol NA) [1]: −2.007
- log2FoldChange ENSG00000224666.2 (symbol NA) [1]: −5.276
- log2FoldChange ENSG00000224789.1 (symbol NA) [1]: −2.338
- log2FoldChange ENSG00000225931.3 (symbol NA) [1]: −4.205
- log2FoldChange ENSG00000229023.1 (symbol NA) [1]: −4.669
- log2FoldChange ENSG00000229677.1 (symbol NA) [1]: −2.162
- log2FoldChange ENSG00000230812.1 (symbol NA) [1]: −5.173
- log2FoldChange ENSG00000231280.1 (symbol NA) [1]: −5.122
- log2FoldChange ENSG00000232709.1 (symbol NA) [1]: −3.863
- log2FoldChange ENSG00000233892.1 (symbol NA) [1]: −1.246
- log2FoldChange ENSG00000234290.2 (symbol NA) [1]: −2.28
- log2FoldChange ENSG00000238000.1 (symbol NA) [1]: −1.895
- log2FoldChange ENSG00000238160.1 (symbol NA) [1]: −3.274
- log2FoldChange ENSG00000238991.1 (symbol NA) [1]: −3.733
- log2FoldChange ENSG00000245025.2 (symbol NA) [1]: −3.838
- log2FoldChange ENSG00000248693.1 (symbol NA) [1]: −3.648
- log2FoldChange ENSG00000252206.1 (symbol NA) [1]: −2.445
- log2FoldChange ENSG00000260336.1 (symbol NA) [1]: −2.736
- log2FoldChange ENSG00000261618.1 (symbol NA) [1]: −6.277
- log2FoldChange ENSG00000271581.1 (symbol NA) [1]: −4.138
- log2FoldChange ENSG00000271646.1 (symbol NA) [1]: −1.853
- log2FoldChange ENSG00000272941.1 (symbol NA) [1]: −7.747
- log2FoldChange ERAP1 (ENSG00000164307.8) [1]: −2.331
- log2FoldChange ERAP2 (ENSG00000164308.12) [1]: −3.931
- log2FoldChange ETV7 (ENSG00000010030.9) [1]: −5.205
- log2FoldChange FAM110C (ENSG00000184731.5) [1]: −3.465
- log2FoldChange FAM111A (ENSG00000166801.11) [1]: −2.679
- log2FoldChange FAM186B (ENSG00000135436.4) [1]: −1.748
- log2FoldChange FAS (ENSG00000026103.15) [1]: −2.315

Source: patent US20230203485A1, “METHODS FOR MODULATING MHC-I EXPRESSION AND IMMUNOTHERAPY USES THEREOF” (Dana-Farber Cancer Institute, Inc., priority 2020, published 2023)
